Results as given in patent US9440962B2, “Benzisoxazoles” (Hoffmann-La Roche Inc., priority 2012, dated 2016).

Legend:
[1] = tested on: human embryonic stem cell derived neural stem cells (NSCs); assay: Neural stem cell proliferation assay (neurogenesis assay, ATP levels by CellTiterGlo); format: cell-based; details: 96 h, compound concentration at which 150% activity of control (100%) is reached, ATP levels after 4 days incubation, dose response 8 μM to 8 nM
Method: Neural Stem Cell Proliferation Assay
Neurogenic properties of small molecules are determined based on the proliferation of human embryonic stem cell derived neural stem cells (NSCs) which were derived via a dual smad inhibition as previously described (Chambers, S. M., et al., Highly efficient neural conversion of human ES and iPS cells by dual inhibition of SMAD signaling, Nature biotechnology, 2009. 27(3): p. 275-80.)
Compounds respond is measured by the increase in cells based on ATP levels (Promega:CellTiterGlo®) after an incubation period of 4 days.
NSCs are thawed and expanded over 3 passages. On the 14th day, NSCs are seeded in Polyornithin/Laminin coated 384 well plates at a cell density of 21′000 cells/cm^2 in a media volume of 38 μl.
4 hours after cell seeding, compound solutions are added at a volume of 2 μl. Stock solutions of the compounds (water, 5% DMSO) are diluted to obtain a dose response (11 points, dilution factor is 2), ranging from 8 μM to 8 nM. Controls are run to consistently determine the neurogenic properties of the cells: • Negative (neutral) control is cell culture Media (final DMSO concentration: 0.25%). Positive controls are: • 1. cell culture Media+100 ng/ml FGF2 (final DMSO concentration: 0.1%) • 2. cell culture Media+20 ng/ml EGF (final DMSO concentration: 0.1%) • 3. cell culture Media+100 ng/ml Wnt3a (final DMSO concentration: 0.1%)
After 4 days incubation at 37° C., 5% CO2, the amount of ATP per well is quantified. The ATP concentration is proportional to the cell number. ATP is quantified by using the Promega CellTiterGlo® kit. The CellTiterGlo® reagents contain a cell lysis buffer, a thermo stable luciferase (UltraGlo™ recombinant luciferase), magnesium and luciferin. Luciferin reacts with ATP producing oxyluciferin, AMP and light. The luminescence signal is proportional to the ATP content.
The value of negative (neutral) control is determined for each assay plate by taking the average of 16 negative control wells. The neurogenic compound response is calculated for each compound as (compound/Negative Control)* 100.
The values of EC150 from the dose response curve are determined for each test compound. The EC150 is the compound concentration at which 150% activity of control (100%) is reached.

Structure (SMILES)	melting point [°C]	EC (150% of control) [1] [µM]
Fc1ccc(-c2onc3ccc(-c4ccnn4-c4ccccc4F)cc23)cc1 [Example 1, 3-(4-Fluoro-phenyl)-5-[2-(2-fluoro-phenyl)-2H-pyrazol-3-yl]-benzo[c]isoxazole]	171	0.12
Fc1cccc(-c2onc3ccc(-c4ccnn4-c4ccccc4F)cc23)c1 [Example 2, 3-(3-Fluoro-phenyl)-5-[2-(2-fluoro-phenyl)-2H-pyrazol-3-yl]-benzo[c]isoxazole]	186	0.29
Cc1ccc(-c2onc3ccc(-c4ccnn4-c4ccccc4F)cc23)cc1 [Example 3, 5-[2-(2-Fluoro-phenyl)-2H-pyrazol-3-yl]-3-p-tolyl-benzo[c]isoxazole]	173	0.12
Fc1ccccc1-n1nccc1-c1ccc2noc(-c3ccc(C(F)(F)F)cc3)c2c1 [Example 4, 5-[2-(2-Fluoro-phenyl)-2H-pyrazol-3-yl]-3-(4-trifluoromethyl-phenyl)-benzo[c]isoxazole]	156	0.92
Fc1ccccc1-n1nccc1-c1ccc2noc(-c3ccc(Cl)cc3)c2c1 [Example 5, 3-(4-Chloro-phenyl)-5-[2-(2-fluoro-phenyl)-2H-pyrazol-3-yl]-benzo[c]isoxazole]	191	0.033
COc1ccc(-c2onc3ccc(-c4ccnn4-c4ccccc4F)cc23)cc1 [Example 6, 5-[2-(2-Fluoro-phenyl)-2H-pyrazol-3-yl]-3-(4-methoxy-phenyl)-benzo[c]isoxazole]	134	0.073
Fc1ccccc1-n1nccc1-c1ccc2noc(-c3ccc(Br)cc3)c2c1 [Example 7, 3-(4-Bromo-phenyl)-5-[2-(2-fluoro-phenyl)-2H-pyrazol-3-yl]benzo[c]isoxazole]	202	0.054
Fc1ccc(-c2onc3ccc(-c4ccnn4-c4ccc(F)cc4)cc23)cc1 [Example 8, 3-(4-Fluoro-phenyl)-5-[2-(4-fluoro-phenyl)-2H-pyrazol-3-yl]-benzo[c]isoxazole]	159	0.25
Fc1ccc(-c2onc3ccc(-c4ccnn4-c4cccc(F)c4)cc23)cc1 [Example 9, 3-(4-Fluoro-phenyl)-5-[2-(3-fluoro-phenyl)-2H-pyrazol-3-yl]-benzo[c]isoxazole]	175	2.8
Fc1ccc(-n2nccc2-c2ccc3noc(-c4cccc(F)c4)c3c2)cc1 [Example 10, 3-(3-Fluoro-phenyl)-5-[2-(4-fluoro-phenyl)-2H-pyrazol-3-yl]-benzo[c]isoxazole]	176	0.56
Cc1ccc(-c2onc3ccc(-c4ccnn4-c4ccc(F)cc4)cc23)cc1 [Example 11, 5-[2-(4-Fluoro-phenyl)-2H-pyrazol-3-yl]-3-p-tolyl-benzo[c]isoxazole]	158	0.23
Fc1ccc(-n2nccc2-c2ccc3noc(-c4ccc(Cl)cc4)c3c2)cc1 [Example 12, 3-(4-Chloro-phenyl)-5-[2-(4-fluoro-phenyl)-2H-pyrazol-3-yl]-benzo[c]isoxazole]	188	0.26
COc1ccc(-c2onc3ccc(-c4ccnn4-c4ccc(F)cc4)cc23)cc1 [Example 13, 5-[2-(4-Fluoro-phenyl)-2H-pyrazol-3-yl]-3-(4-methoxy-phenyl)-benzo[c]isoxazole]	153	0.39
Cc1ccc(-n2nccc2-c2ccc3noc(-c4ccc(F)cc4)c3c2)cc1 [Example 14, 3-(4-Fluoro-phenyl)-5-(2-p-tolyl-2H-pyrazol-3-yl)-benzo[c]isoxazole]	173	0.091
Cc1ccc(-n2nccc2-c2ccc3noc(-c4cccc(F)c4)c3c2)cc1 [Example 15, 3-(3-Fluoro-phenyl)-5-(2-p-tolyl-2H-pyrazol-3-yl)-benzo[c]isoxazole]	207	0.14
Cc1ccc(-c2onc3ccc(-c4ccnn4-c4ccc(C)cc4)cc23)cc1 [Example 16, 3-p-Tolyl-5-(2-p-tolyl-2H-pyrazol-3-yl)-benzo[c]isoxazole]	190	0.055

Structure (SMILES)	melting point [°C]	EC (150% of control) [1] [µM]
Cc1ccc(-n2nccc2-c2ccc3noc(-c4ccc(C(F)(F)F)cc4)c3c2)cc1 [Example 17, 5-(2-p-Tolyl-2H-pyrazol-3-yl)-3-(4-trifluoromethyl-phenyl)-benzo[c]isoxazole]	173	1.13
Cc1ccc(-n2nccc2-c2ccc3noc(-c4ccc(Cl)cc4)c3c2)cc1 [Example 18, 3-(4-Chloro-phenyl)-5-(2-p-tolyl-2H-pyrazol-3-yl)-benzo[c]isoxazole]	204	0.093
COc1ccc(-c2onc3ccc(-c4ccnn4-c4ccc(C)cc4)cc23)cc1 [Example 19, 3-(4-Methoxy-phenyl)-5-(2-p-tolyl-2H-pyrazol-3-yl)-benzo[c]isoxazole]	165	0.045
COc1ccc(-n2nccc2-c2ccc3noc(-c4ccc(F)cc4)c3c2)cc1 [Example 20, 3-(4-Fluoro-phenyl)-5-[2-(4-methoxy-phenyl)-2H-pyrazol-3-yl]-benzo[c]isoxazole]	179	0.36
COc1ccc(-n2nccc2-c2ccc3noc(-c4cccc(F)c4)c3c2)cc1 [Example 21, 3-(3-Fluoro-phenyl)-5-[2-(4-methoxy-phenyl)-2H-pyrazol-3-yl]-benzo[c]isoxazole]	203	0.51
COc1ccc(-n2nccc2-c2ccc3noc(-c4ccc(C)cc4)c3c2)cc1 [Example 22, 5-[2-(4-Methoxy-phenyl)-2H-pyrazol-3-yl]-3-p-tolyl-benzo[c]isoxazole]	159	0.18
COc1ccc(-n2nccc2-c2ccc3noc(-c4ccc(Cl)cc4)c3c2)cc1 [Example 23, 3-(4-Chloro-phenyl)-5-[2-(4-methoxy-phenyl)-2H-pyrazol-3-yl]-benzo[c]isoxazole]	177	0.31
COc1ccc(-c2onc3ccc(-c4ccnn4-c4ccc(OC)cc4)cc23)cc1 [Example 24, 3-(4-Methoxy-phenyl)-5-[2-(4-methoxy-phenyl)-2H-pyrazol-3-yl]-benzo[c]isoxazole]	133	0.26
Fc1ccc(-c2onc3ccc(-c4ccnn4-c4ccc(Cl)cc4)cc23)cc1 [Example 25, 5-[2-(4-Chloro-phenyl)-2H-pyrazol-3-yl]-3-(4-fluoro-phenyl)-benzo[c]isoxazole]	154	0.32
Fc1cccc(-c2onc3ccc(-c4ccnn4-c4ccc(Cl)cc4)cc23)c1 [Example 26, 5-[2-(4-Chloro-phenyl)-2H-pyrazol-3-yl]-3-(3-fluoro-phenyl)-benzo[c]isoxazole]	184	1.3
Clc1ccc(-c2onc3ccc(-c4ccnn4-c4ccc(Cl)cc4)cc23)cc1 [Example 27, 3-(4-Chloro-phenyl)-5-[2-(4-chloro-phenyl)-2H-pyrazol-3-yl]-benzo[c]isoxazole]	222	0.46
Fc1ccc(-c2onc3ccc(-c4ccnn4-c4ccc(F)cc4F)cc23)cc1 [Example 28, 5-[2-(2,4-Difluoro-phenyl)-2H-pyrazol-3-yl]-3-(4-fluoro-phenyl)-benzo[c]isoxazole]	149	0.07
Fc1cccc(-c2onc3ccc(-c4ccnn4-c4ccc(F)cc4F)cc23)c1 [Example 29, 5-[2-(2,4-Difluoro-phenyl)-2H-pyrazol-3-yl]-3-(3-fluoro-phenyl)-benzo[c]isoxazole]	165	0.25
Cc1ccc(-c2onc3ccc(-c4ccnn4-c4ccc(F)cc4F)cc23)cc1 [Example 30, 5-[2-(2,4-Difluoro-phenyl)-2H-pyrazol-3-yl]-3-p-tolyl-benzo[c]isoxazole]	147	0.04
Fc1ccc(-n2nccc2-c2ccc3noc(-c4ccc(C(F)(F)F)cc4)c3c2)c(F)c1 [Example 31, 5-[2-(2,4-Difluoro-phenyl)-2H-pyrazol-3-yl]-3-(4-trifluoromethyl-phenyl)-benzo[c]isoxazole]	159	0.96
